For data set [1] the following is noted: pH 6.5, 30 min at room temperature; cited from earlier work.
For data set [2] the following is noted: scaled; cited from earlier work.
Data set [3] addresses T1, PvDHODH (Plasmodium vivax, UniProt A5K1N1).
T1 sequence (A5K1N1 160-572): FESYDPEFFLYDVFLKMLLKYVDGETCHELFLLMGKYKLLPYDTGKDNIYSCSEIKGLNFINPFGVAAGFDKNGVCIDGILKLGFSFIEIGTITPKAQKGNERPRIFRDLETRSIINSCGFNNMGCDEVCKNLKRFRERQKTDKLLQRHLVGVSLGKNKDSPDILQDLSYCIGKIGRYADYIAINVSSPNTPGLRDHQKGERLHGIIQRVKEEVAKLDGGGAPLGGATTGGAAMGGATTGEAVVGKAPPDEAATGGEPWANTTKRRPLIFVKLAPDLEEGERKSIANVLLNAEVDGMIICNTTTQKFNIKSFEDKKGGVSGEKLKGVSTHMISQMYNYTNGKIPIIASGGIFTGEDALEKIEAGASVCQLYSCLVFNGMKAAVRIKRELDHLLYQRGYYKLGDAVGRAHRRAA
Conditions: read-out: PvDHODH IC50; previous reports; 2 from 15, 3 from 16; cited from earlier work.

Data set [4] is described as follows: kinetic aqueous solubility by nephelometry. It counts as physicochemical. Conditions: pH 6.5 phosphate buffer, pH 6.5.
The nature of data set [5]: in vitro metabolism, human liver microsomes. It counts as in vitro ADME. Conditions: human, pooled human liver microsomes. Background: Liver microsomes are vesicles of endoplasmic reticulum, rich in cytochrome P450 enzymes.
For data set [6], the system named is P. falciparum Pf3D7_0087/N9 parasites. Conditions: for AUCED90: total blood AUC at the ED90, Day 1 pharmacokinetic data, QD, only two dose levels.
Data set [7] in a line: plasma protein binding by ultracentrifugation, human plasma. It counts as in vitro ADME.
Data set [8] can be described thus: plasma protein binding by ultracentrifugation, mouse plasma. It counts as in vitro ADME. The settings on record: for PPB mouse (% bound): mouse plasma, ultracentrifugation.
In data set [9] the target is dog DHODH (Canis lupus familiaris, UniProt A0A8I3MWX2). Description: biochemical.
Data set [10] concerns the target T1, PvDHODH. Conditions: PvDHODH IC50 higher than PfDHODH IC50.
The nature of data set [11]: in vivo. The settings on record: Sprague-Dawley, rat, plasma, iv.
Data set [12] is described as follows: plasma protein binding by ultracentrifugation, rat plasma. It counts as in vitro ADME.
Data set [13] concerns the target hERG K+ channel (Homo sapiens, UniProt Q12809). Conditions: SCID study.
The conditions of data set [14]: approximate.
The target of data set [15] is hDHODH (Homo sapiens, UniProt Q02127). Conditions: read-out: hDHODH IC50.

pIC50: −log10 of the molar value. ≈ marks a conversion by molar mass, not a printed value. Marks after values point to notes of the source that are not given here.

In general, pIC50 refers to the negative decadic logarithm of the IC50, by convention in mol/L. As usually defined, the kinetic solubility is solubility judged after dilution from a stock solution rather than from solid. Usually CLint scaled stands for the capacity of the preparation to metabolise the compound, expressed as a volume cleared per time. Higher therefore signals rapid turnover. What is called clearance is a measure of how efficiently the substance is removed, as volume per time. A higher clearance goes with a high capacity for elimination.

Chain of dog DHODH (A0A8I3MWX2 1-406): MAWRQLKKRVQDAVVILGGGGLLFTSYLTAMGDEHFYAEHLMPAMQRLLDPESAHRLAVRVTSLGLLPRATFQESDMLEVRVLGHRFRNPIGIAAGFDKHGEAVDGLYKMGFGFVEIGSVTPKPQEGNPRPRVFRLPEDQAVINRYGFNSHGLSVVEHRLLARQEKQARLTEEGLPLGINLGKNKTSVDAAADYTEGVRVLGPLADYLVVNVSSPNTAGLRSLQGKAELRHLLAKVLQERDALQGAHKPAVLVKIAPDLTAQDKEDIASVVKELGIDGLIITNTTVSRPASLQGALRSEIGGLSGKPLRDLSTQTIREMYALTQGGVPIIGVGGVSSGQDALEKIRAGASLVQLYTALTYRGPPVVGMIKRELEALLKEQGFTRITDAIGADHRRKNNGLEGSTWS
Chain of hERG K+ channel (Q12809 whole entry): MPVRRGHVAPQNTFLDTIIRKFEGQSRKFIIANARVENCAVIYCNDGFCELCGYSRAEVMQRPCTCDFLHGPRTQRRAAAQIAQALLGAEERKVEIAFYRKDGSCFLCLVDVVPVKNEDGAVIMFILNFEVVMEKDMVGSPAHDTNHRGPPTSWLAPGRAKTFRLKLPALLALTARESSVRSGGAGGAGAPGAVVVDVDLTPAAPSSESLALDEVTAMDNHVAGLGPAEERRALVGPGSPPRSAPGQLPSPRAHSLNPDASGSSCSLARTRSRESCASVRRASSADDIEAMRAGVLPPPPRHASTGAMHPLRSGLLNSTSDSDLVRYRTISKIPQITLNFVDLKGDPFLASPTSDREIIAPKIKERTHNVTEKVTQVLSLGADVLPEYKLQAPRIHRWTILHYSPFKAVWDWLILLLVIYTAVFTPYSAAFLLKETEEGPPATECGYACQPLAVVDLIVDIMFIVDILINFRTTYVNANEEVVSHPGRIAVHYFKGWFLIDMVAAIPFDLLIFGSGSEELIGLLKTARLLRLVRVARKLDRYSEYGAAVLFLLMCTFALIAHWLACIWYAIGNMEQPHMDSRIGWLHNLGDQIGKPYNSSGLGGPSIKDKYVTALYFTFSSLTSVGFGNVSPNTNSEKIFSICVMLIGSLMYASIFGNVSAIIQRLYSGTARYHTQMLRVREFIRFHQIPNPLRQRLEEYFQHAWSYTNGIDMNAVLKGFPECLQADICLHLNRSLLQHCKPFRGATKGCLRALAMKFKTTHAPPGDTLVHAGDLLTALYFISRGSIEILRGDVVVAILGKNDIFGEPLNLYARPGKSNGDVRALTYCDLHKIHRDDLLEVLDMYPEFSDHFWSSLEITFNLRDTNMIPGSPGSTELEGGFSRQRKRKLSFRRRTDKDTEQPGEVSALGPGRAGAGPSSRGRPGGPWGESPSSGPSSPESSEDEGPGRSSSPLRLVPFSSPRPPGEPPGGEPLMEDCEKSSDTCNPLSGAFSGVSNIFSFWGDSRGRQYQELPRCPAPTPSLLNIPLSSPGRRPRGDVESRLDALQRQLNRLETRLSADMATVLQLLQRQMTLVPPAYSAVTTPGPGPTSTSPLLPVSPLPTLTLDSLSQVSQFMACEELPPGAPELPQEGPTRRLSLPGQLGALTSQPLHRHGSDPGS
Chain of hDHODH (Q02127 31-395 limits assumed): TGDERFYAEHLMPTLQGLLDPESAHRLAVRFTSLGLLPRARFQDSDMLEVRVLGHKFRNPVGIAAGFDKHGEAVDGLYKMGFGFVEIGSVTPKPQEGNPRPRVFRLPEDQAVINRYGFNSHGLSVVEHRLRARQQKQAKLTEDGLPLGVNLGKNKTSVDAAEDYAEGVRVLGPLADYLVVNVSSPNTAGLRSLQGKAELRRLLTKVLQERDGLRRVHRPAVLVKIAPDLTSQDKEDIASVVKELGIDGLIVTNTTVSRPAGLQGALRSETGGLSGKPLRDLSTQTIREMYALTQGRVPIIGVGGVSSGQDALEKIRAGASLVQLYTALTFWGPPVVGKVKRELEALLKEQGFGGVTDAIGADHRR

`Cc1cc(Nc2ccc(C(F)(F)F)cc2)n2ncnc2n1` [Compound 3, (5-methyl[1,2,4]triazolo[1,5-a]pyrimidin-7-yl)(4-trifluoromethylphenyl)amine]: in data set [1], the “kinetic solubility pH 6.5” value was 6.3–12.5 μg/mL. For the same compound, in [2], the “predicted in vivo CLint human” value is on record as 6.2/ND/ND mL/min/kg. Also, the pIC50 in data set [3] is 5.59.
In turn, `Cc1cc(NC2CCc3cc(F)ccc3C2)n2nc(C(C)(F)F)nc2n1` (centres unmarked) [Compound 6, 2-(1,1-Difluoroethyl)-N-(6-fluoro-1,2,3,4-tetrahydronaphthalen-2-yl)-5-methyl-[1,2,4]triazolo[1,5-a]pyrimidin-7-amine] registered a kinetic solubility at 30 min in data set [4] of 6.3 to 12.5 µg/mL (≈ 17.4 to 34.6 µM). In data set [5], the CLint scaled at 1 μM worked out at 12 mL/min/kg.
The compound `Cc1cc(NC2CCc3cc(Cl)ccc3C2)n2nc(C(C)(F)F)nc2n1` (centres unmarked) [Compound 7, 2-(1,1-Difluoroethyl)-N-(6-chloro-1,2,3,4-tetrahydronaphthalen-2-yl)-5-methyl-[1,2,4]triazolo[1,5-a]pyrimidin-7-amine] showed a solubility (kinetic) at 30 min in data set [4] of 3.1 to 6.3 µg/mL (≈ 8.2 to 16.7 µM). Moreover, in [6], the AUCED90 was more than 23 μM·h/day. In [7], the “PPB human (% bound)” value was 98.8 % bound. In addition, in data set [8] (approximation based on rat and human plasma protein binding data), the “mouse PPB (% bound)” value is 99.2 ^c % bound. This compound also showed a pIC50 in [9] of less than 4.00. In data set [10], the “difference of IC50 P. vivax DHODH versus PfDHODH” value is reported as 5–8 fold. Besides, the clearance in [11] amounted to 3.5 mL/min/kg. Also, the “PPB rat (% bound)” value in [12] is recorded as 99.2 % bound. The compound further yielded a CLint scaled at 1 μM in [5] of less than 5.8 mL/min/kg.
On to `Cc1cc(N[C@H]2CCc3ccc(Cl)cc3C2)n2nc(C(C)(F)F)nc2n1` [Compound 9, (S)-N-(7-Chloro-1,2,3,4-tetrahydronaphthalen-2-yl)-2-(1,1-difluoroethyl)-5-methyl-[1,2,4]triazolo[1,5-a]pyrimidin-7-amine], for which the solubility (kinetic) at 30 min in data set [4] lay within 3.1 to 6.3 µg/mL (≈ 8.2 to 16.7 µM). Besides, the “PPB human (% bound)” value in [7] came to 96.7 % bound. For the same compound, the “PPB mouse (% bound)” value in data set [8] is on record as 97.4 % bound. In [13], the “unbound Cmax at the ED90 lower than the IC50 on the hERG channel” value is approximately 30 fold. Besides, the pIC50 in [9] is less than 4.00. For the same compound, in data set [14], the “Cmax at the ED90 in the SCID study, unbound concentration” value was “approximately 0.05 μM”. The “difference of IC50 P. vivax DHODH versus PfDHODH” value in [10] is recorded as 1.5–3 fold. In addition, in data set [12], the “PPB rat (% bound)” value came to 96.4 % bound. The CLint scaled at 1 μM in data set [5] was less than 5.8 mL/min/kg.
Take `Cc1cc(NC2CCc3cc(Br)ccc3C2)n2nc(C(C)(F)F)nc2n1` (centres unmarked) [Compound 12, 2-(1,1-Difluoroethyl)-N-(6-bromo-1,2,3,4-tetrahydronaphthalen-2-yl)-5-methyl-[1,2,4]triazolo[1,5-a]pyrimidin-7-amine]: the kinetic solubility at 30 min in data set [4] is 3.1 to 6.3 µg/mL (≈ 7.34 to 14.9 µM). Further, in [5], the CLint scaled at 1 μM is less than 5.8 mL/min/kg.
As for `Cc1cc(NC2CCc3ccc(Br)cc3C2)n2nc(C(C)(F)F)nc2n1` (centres unmarked) [Compound 14, 2-(1,1-Difluoroethyl)-N-(7-bromo-1,2,3,4-tetrahydronaphthalen-2-yl)-5-methyl-[1,2,4]triazolo[1,5-a]pyrimidin-7-amine], the pIC50 in data set [15] was less than 4.00.
In data set [4], `COc1ccc2c(c1)CC(Nc1cc(C)nc3nc(C(C)(F)F)nn13)CC2` (centres unmarked) [Compound 16, 2-(1,1-Difluoroethyl)-N-(7-methoxy-1,2,3,4-tetrahydronaphthal-en-2-yl)-5-methyl-[1,2,4]triazolo[1,5-a]pyrimidin-7-amine] came in with a kinetic solubility at 30 min of 12.5 to 25 µg/mL (≈ 33.5 to 67 µM). Besides, the CLint scaled at 1 μM in data set [5] came out at 15 mL/min/kg.
In turn, `Cc1cc(NC2CCc3cc(F)c(F)cc3C2)n2nc(C(C)(F)F)nc2n1` (centres unmarked) [Compound 19, 2-(1,1-Difluoroethyl)-N-(6,7-difluoro-1,2,3,4-tetrahydronaphthalen-2-yl)-5-methyl-[1,2,4]triazolo[1,5-a]pyrimidin-7-amine] gave a CLint scaled at 1 μM in [5] of 9.1 mL/min/kg.
`Cc1cc(NC2CCc3cc(F)c(C(F)(F)F)cc3C2)n2nc(C(C)(F)F)nc2n1` (centres unmarked) [Compound 20, 2-(1,1-Difluoroethyl)-N-(6-fluoro-7-(trifluoromethyl)-1,2,3,4-tetrahydronaphthalen-2-yl)-5-methyl-[1,2,4]triazolo[1,5-a]pyrimidin-7-amine] registered a kinetic solubility at 30 min in data set [4] of 3.1 to 6.3 µg/mL (≈ 7.22 to 14.7 µM). The compound further displayed a CLint scaled at 1 μM in data set [5] of less than 5.8 mL/min/kg.
In the same order, the values of `Cc1cc(NC2CCc3cc(C(F)(F)F)c(F)cc3C2)n2nc(C(C)(F)F)nc2n1` (centres unmarked) [Compound 21, 2-(1,1-Difluoroethyl)-N-(7-fluoro-6-(trifluoromethyl)-1,2,3,4-tetrahydro-naphthalen-2-yl)-5-methyl-[1,2,4]triazolo[1,5-a]pyrimidin-7-amine] are 1.6 to 3.1 µg/mL (≈ 3.73 to 7.22 µM) and less than 5.8 mL/min/kg.
In the same order, the values of `Cc1cc(NC2CCc3ccc(Cl)cc3C2)n2nc(C(F)(F)F)nc2n1` (centres unmarked) [Compound 24, N-(7-Chloro-1,2,3,4-tetrahydronaphthalen-2-yl)-5-methyl-2-(trifluoromethyl)-[1,2,4]triazolo[1,5-a]pyrimidin-7-amine] are 1.6 to 3.1 µg/mL (≈ 4.19 to 8.12 µM) and 7.4 mL/min/kg.
In the same order, the values of `Cc1cc(NC2Cc3ccccc3C2)n2nc(C(C)(F)F)nc2n1` [Compound 26, 2-(1,1-Difluoroethyl)-N-(2,3-dihydro-1H-inden-2-yl)-5-methyl[1,2,4]triazolo[1,5-a]pyrim-idin-7-amine] are 25 to 50 µg/mL (≈ 75.9 to 152 µM) and 20 mL/min/kg.
In data set [4], `Cc1cc(NC2Cc3ccc(Cl)cc3C2)n2nc(C(C)(F)F)nc2n1` (centres unmarked) [Compound 28, N-(5-Chloro-2,3-dihydro-1H-inden-2-yl)-2-(1,1-difluoroethyl)-5-methyl-[1,2,4]triazolo[1,5-a]pyrimidin-7-amine] returned a solubility (kinetic) at 30 min of 6.3 to 12.5 µg/mL (≈ 17.3 to 34.4 µM). Also, the CLint scaled at 1 μM in data set [5] was found to be 8.2 mL/min/kg.
For the compound `Cc1cc(NC2Cc3c(C)ccc(C)c3C2)n2nc(C(C)(F)F)nc2n1` [Compound 32, N-(4,7-Dimethyl-2,3-dihydro-1H-inden-2-yl)-2-(1,1-difluoroethyl)-5-methyl-[1,2,4]triazolo[1,5-a]pyrimidin-7-amine], the kinetic solubility at 30 min in data set [4] fell in the range of 6.3 to 12.5 µg/mL (≈ 17.6 to 35 µM). In data set [5], the CLint scaled at 1 μM was determined as 138 mL/min/kg.
In the same order, the values of `Cc1cc(NC2Cc3c(F)ccc(F)c3C2)n2nc(C(C)(F)F)nc2n1` [Compound 33, N-(4,7-Difluoro-2,3-dihydro-1H-inden-2-yl)-2-(1,1-difluoroethyl)-5-methyl-[1,2,4]triazolo[1,5-a]pyrimidin-7-amine] are 6.3 to 12.5 µg/mL (≈ 17.2 to 34.2 µM) and 27 mL/min/kg.
In the same order, the values of `Cc1cc(NC2Cc3cccc(F)c3C2)n2nc(C(C)(F)F)nc2n1` (centres unmarked) [Compound 34, 2-(1,1-Difluoroethyl)-N-(4-fluoro-2,3-dihydro-1H-inden-2-yl)-5-methyl-[1,2,4]triazolo[1,5-a]pyrimidin-7-amine] are 12.5 to 25 µg/mL (≈ 36 to 72 µM) and 9.1 mL/min/kg.
The compound `Cc1cc(NC2Cc3cc(F)c(F)cc3C2)n2nc(C(C)(F)F)nc2n1` [Compound 35, N-(5,6-Difluoro-2,3-dihydro-1H-inden-2-yl)-2-(1,1-difluoroethyl)-5-methyl-[1,2,4]triazolo[1,5-a]pyrimidin-7-amine] yielded a kinetic solubility at 30 min in data set [4] of 6.3 to 12.5 µg/mL (≈ 17.2 to 34.2 µM). For the same compound, in [6] (oral QD for 4 days), the ED90 is given as more than 30 mg/kg. Moreover, the AUCED90 entry in data set [6] was “∼137 μM·h/day”. In addition, the “PPB human (% bound)” value in data set [7] amounted to 93.4 % bound. Further, the “PPB mouse (% bound)” value in data set [8] is given as 95.3 % bound. Also, the pIC50 in data set [9] is less than 4.00. For the same compound, the “difference of IC50 P. vivax DHODH versus PfDHODH” value in data set [10] is listed as 7 fold. In addition, the “PPB rat (% bound)” value in [12] was determined as 94.2 % bound. Besides, in [5], the CLint scaled at 1 μM is less than 5.8 mL/min/kg.
`Cc1cc(NC2Cc3cccc(C(F)(F)F)c3C2)n2nc(C(C)(F)F)nc2n1` (centres unmarked) [Compound 36, 2-(1,1-Difluoroethyl)-5-methyl-N-(4-(trifluoromethyl)-2,3-dihydro-1H-inden-2-yl)-[1,2,4]triazolo[1,5-a]pyrimidin-7-amine] displayed a kinetic solubility at 30 min in data set [4] of 6.3 to 12.5 µg/mL (≈ 15.9 to 31.5 µM). For the same compound, in [5], the CLint scaled at 1 μM amounted to 25 mL/min/kg.
